What all share (assay type): cell-based
Data set [1] has as its target Nav 1.5 (Homo sapiens (Human), UniProt Q14524). As to the kind of experiment: Nav 1.5 in vitro PX assay (PatchXpress whole cell voltage clamp). To be noted: 293 cells stably transfected with Nav 1.5. On the procedure: Nav 1.5 In Vitro PX Assay
293 cells stably transfected with Nav 1.5 were recorded in whole cell voltage clamp mode with the PatchXpress automated electrophysiology system according the manufacturer's specifications (Molecular Devices, LLC, Sunnyvale, Calif.). Cells were held at a holding potential of −50 mV to inactivate sodium channels. To elicit sodium currents the voltage was changed to −120 mV to recover a portion of the channels, followed by delivery of test pulses of 20 msec duration to 0 mV, at 0.1 Hz. A single concentration of test compound was applied to cells for a duration of 5 minutes. Peak sodium current was measured at the end of the compound addition period to determine percent inhibition. A minimum of two cells were tested per concentration. IC50 curves were fitted to percent inhibition as a function of concentration.

The target of data set [2] is T1, Nav 1.7 (Homo sapiens (Human), UniProt Q15858). The data set is described as follows: Nav 1.7 in vitro PX assay (PatchXpress whole cell voltage clamp). The settings on record: 293 cells, human Nav1.7, partially inactivated state; read-out: Nav1.7 PX IC50 IP. The method, boiled down:
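HEK293 cells stably expressing human Nav1.7, whole-cell voltage clamp on PatchXpress, held at potential giving 20–50% inactivation; current elicited by 20 msec pulse to −10 mV.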

For data set [3], the target named is T1, Nav 1.7. As to the kind of experiment: Nav 1.7 IWQ in vitro assay (IonWorks Quattro population patch-clamp). To be noted: 293 cells stably transfected with Nav 1.7; second part of table; read-out: Nav1.7 IWQ IC50 IP. The method, boiled down:
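HEK293 cells stably expressing Nav 1.7, recorded by automated population patch-clamp with a train of depolarizations producing increasing inactivation. Single compound concentration added during 3–8 min unclamped period, then same protocol repeated. Leak-corrected current at 26th pulse to −20 mV gave percent block (duplicate); IC50 fitted from concentration–block curves.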
(In general: In patch-clamp work, channel activity is measured electrically.)

The mark [4] stands for this setting: second part of table, read-out: Nav1.5 PX IC50.
Where [5] appears, read: first part of table, read-out: Nav 1.5 PX IC50.

SMILES strings stand for the structures. Where two headings read alike, the source gives them in different places.

By IC50 is commonly meant the concentration that gives 50% inhibition.

Nav 1.5, sequence (Q14524 whole entry): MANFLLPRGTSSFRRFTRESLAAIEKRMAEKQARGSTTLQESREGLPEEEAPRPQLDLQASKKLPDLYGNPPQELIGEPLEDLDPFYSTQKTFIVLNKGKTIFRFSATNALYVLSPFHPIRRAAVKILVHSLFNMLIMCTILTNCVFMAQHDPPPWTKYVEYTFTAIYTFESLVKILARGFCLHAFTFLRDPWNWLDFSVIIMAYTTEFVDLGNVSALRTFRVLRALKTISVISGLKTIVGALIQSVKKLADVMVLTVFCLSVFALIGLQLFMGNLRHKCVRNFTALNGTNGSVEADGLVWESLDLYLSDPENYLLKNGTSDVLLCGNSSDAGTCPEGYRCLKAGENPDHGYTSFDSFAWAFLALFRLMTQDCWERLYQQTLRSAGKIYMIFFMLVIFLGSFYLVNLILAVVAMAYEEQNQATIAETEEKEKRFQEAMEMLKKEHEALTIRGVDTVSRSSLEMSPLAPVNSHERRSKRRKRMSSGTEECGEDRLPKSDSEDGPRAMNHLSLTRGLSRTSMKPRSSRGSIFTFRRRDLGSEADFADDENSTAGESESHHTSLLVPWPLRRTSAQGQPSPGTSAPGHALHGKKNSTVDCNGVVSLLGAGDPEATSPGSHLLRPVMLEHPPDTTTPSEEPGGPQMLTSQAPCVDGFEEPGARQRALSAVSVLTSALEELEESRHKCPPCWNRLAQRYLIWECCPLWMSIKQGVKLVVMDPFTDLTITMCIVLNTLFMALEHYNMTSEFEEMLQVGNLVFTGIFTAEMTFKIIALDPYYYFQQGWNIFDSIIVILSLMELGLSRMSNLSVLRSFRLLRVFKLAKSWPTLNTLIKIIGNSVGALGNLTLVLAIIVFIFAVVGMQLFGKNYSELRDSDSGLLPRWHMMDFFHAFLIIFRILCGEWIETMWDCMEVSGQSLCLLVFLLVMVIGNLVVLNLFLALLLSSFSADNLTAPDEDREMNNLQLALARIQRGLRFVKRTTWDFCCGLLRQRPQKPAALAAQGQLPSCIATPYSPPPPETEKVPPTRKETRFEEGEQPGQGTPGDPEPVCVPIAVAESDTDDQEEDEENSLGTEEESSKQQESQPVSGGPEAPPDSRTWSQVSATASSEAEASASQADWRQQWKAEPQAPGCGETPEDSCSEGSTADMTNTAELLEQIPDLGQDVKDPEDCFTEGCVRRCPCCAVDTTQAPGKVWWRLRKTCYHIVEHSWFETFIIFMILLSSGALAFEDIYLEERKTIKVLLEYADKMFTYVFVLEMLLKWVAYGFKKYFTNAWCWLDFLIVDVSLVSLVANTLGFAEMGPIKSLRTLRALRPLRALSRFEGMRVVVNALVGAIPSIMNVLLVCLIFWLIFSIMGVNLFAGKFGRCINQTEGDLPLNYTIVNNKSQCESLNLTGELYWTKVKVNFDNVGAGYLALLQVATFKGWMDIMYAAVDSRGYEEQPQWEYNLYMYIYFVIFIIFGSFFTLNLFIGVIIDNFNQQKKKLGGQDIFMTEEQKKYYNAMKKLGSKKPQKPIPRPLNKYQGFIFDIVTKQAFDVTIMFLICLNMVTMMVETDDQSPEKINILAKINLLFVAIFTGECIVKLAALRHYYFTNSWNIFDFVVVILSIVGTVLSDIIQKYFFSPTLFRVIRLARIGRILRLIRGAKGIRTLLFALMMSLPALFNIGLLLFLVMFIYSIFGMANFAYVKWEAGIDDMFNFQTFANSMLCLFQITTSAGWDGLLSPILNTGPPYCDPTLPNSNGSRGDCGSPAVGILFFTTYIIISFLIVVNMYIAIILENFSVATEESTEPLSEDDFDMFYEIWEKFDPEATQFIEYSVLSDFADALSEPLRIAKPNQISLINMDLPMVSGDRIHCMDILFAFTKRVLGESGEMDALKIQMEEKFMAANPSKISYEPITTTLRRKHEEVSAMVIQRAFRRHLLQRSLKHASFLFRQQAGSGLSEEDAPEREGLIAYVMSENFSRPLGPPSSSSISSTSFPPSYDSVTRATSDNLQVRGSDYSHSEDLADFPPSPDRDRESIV
T1 sequence (Q15858 whole entry): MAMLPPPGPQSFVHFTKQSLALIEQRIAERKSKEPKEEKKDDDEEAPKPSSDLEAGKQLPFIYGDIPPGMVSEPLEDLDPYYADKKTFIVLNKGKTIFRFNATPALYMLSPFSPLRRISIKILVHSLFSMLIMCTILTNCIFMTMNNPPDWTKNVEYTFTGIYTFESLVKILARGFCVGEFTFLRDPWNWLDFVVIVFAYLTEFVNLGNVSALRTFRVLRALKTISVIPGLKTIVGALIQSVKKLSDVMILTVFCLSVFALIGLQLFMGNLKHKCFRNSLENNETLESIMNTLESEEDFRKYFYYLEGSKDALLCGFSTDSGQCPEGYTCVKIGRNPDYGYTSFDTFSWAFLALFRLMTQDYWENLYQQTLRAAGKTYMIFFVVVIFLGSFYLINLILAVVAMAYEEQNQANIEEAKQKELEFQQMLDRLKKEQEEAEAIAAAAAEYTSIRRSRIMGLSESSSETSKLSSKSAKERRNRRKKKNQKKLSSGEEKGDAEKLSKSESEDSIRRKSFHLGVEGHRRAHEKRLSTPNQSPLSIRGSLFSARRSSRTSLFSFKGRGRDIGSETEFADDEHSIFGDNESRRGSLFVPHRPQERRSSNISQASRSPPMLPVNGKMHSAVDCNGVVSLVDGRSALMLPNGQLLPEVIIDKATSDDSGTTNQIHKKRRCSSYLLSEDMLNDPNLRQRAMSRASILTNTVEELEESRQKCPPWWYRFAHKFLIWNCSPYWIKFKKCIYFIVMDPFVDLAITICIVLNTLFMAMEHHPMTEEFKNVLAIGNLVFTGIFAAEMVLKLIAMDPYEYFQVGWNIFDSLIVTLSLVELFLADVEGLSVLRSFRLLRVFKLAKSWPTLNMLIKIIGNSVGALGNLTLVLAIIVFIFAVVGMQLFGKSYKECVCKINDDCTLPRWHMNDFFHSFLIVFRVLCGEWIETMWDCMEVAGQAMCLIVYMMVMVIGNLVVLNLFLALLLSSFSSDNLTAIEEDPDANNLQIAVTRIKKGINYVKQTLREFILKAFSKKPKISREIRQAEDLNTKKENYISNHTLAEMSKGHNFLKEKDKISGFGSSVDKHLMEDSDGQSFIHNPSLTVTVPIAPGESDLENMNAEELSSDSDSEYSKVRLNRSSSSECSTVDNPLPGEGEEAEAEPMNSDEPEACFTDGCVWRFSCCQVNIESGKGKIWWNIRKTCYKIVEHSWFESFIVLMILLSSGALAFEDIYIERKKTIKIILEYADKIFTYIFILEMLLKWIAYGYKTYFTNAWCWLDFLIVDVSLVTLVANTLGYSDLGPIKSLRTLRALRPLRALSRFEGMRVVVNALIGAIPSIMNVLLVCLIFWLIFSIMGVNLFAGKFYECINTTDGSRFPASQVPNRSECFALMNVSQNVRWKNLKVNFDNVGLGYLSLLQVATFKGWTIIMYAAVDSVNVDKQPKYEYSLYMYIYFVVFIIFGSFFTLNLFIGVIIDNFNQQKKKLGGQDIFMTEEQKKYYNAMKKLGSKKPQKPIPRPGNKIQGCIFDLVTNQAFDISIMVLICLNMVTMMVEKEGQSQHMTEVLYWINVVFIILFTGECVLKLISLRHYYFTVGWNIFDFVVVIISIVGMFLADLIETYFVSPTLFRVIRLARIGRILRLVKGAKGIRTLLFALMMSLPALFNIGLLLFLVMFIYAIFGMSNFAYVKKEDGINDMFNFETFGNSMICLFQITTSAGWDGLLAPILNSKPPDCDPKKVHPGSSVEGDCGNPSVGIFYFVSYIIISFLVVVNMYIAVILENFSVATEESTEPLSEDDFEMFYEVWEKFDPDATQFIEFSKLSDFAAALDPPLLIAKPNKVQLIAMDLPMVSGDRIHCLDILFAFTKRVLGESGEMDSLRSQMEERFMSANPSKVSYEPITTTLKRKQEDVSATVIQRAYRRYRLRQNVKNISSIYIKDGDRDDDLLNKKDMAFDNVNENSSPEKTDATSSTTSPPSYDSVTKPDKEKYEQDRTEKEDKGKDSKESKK

Regarding `COc1cc(Cl)ccc1-c1nccc2cc(S(=O)(=O)Nc3ncns3)ccc12` [Example 368, 1-(4-CHLORO-2-METHOXYPHENYL)-N-(1,2,4-THIADIAZOL-5-YL)ISOQUINOLINE-6-SULFONAMIDE], the IC50 in data set [1] (setting [4]) is more than 30000 nM; in data set [2], 122 nM. On the same counts, the results for `COc1cc(C(F)(F)F)ccc1-c1ccnc2cc(S(=O)(=O)Nc3nccs3)c(C)cc12` [Example 326, 4-(2-METHOXY-4-(TRIFLUOROMETHYL)PHENYL)-6-METHYL-N-(THIAZOL-2-YL)QUINOLINE-7-SULFONAMIDE] are 2500 nM and 660 nM.

As for `COc1cc(-c2ccc(F)c(C)c2)ccc1-c1nccc2cc(S(=O)(=O)Nc3ccncn3)ccc12` [Example 488, 1-(4′-FLUORO-3-METHOXY-3′-METHYL-[1,1′-BIPHENYL]-4-YL)-N-(PYRIMIDIN-4-YL)ISOQUINOLINE-6-SULFONAMIDE], the IC50 in data set [1] (setting [4]) was more than 30000 nM; in data set [2], 99 nM.

Take `COc1cc(F)ccc1-c1nccc2cc(S(=O)(=O)Nc3nccs3)ccc12` [Example 405, 1-(4-FLUORO-2-METHOXYPHENYL)-N-(THIAZOL-2-YL)ISOQUINOLINE-6-SULFONAMIDE]: the half-maximal inhibitory concentration (IC50) in data set [1] (setting [4]) was more than 30000 nM; in data set [2] it was 442 nM. For the compound `COc1cc(Cl)c(C#N)cc1-c1nccc2cc(S(=O)(=O)Nc3nncs3)ccc12` [Example 337, 1-(4-CHLORO-5-CYANO-2-METHOXYPHENYL)-N-(1,3,4-THIADIAZOL-2-YL)ISOQUINOLINE-6-SULFONAMIDE], the IC50 is more than 30000 nM in data set [1] (setting [4]) and 388 nM in data set [2]. On the same counts, the results for `N#CCOc1cc(Cl)ccc1-c1nccc2cc(S(=O)(=O)Nc3nccs3)ccc12` [Example 373, 1-(4-CHLORO-2-(CYANOMETHOXY)PHENYL)-N-(THIAZOL-2-YL)ISOQUINOLINE-6-SULFONAMIDE 2,2,2-TRIFLUOROACETATE] are more than 30000 nM and 153 nM.

In the case of `COc1cc(-c2ccc(F)c(F)c2)c(F)cc1-c1nccc2cc(S(=O)(=O)Nc3nncs3)ccc12` [Example 365, N-(1,3,4-THIADIAZOL-2-YL)-1-(2,3′,4′-TRIFLUORO-5-METHOXY-[1,1′-BIPHENYL]-4-YL)ISOQUINOLINE-6-SULFONAMIDE], the IC50 is more than 30000 nM in data set [1] (setting [4]) and 41 nM in data set [2]. The matching figures for `COc1cc(CC(C)(C)C)ccc1-c1nccc2cc(S(=O)(=O)Nc3ccncn3)ccc12` [Example 360, 1-(2-METHOXY-4-NEOPENTYLPHENYL)-N-(PYRIMIDIN-4-YL)ISOQUINOLINE-6-SULFONAMIDE]: more than 30000 nM and 513 nM. The matching figures for `COc1cc(-c2cc(F)cc(C#N)c2)ccc1-c1nccc2cc(S(=O)(=O)Nc3ccncn3)ccc12` [Example 487, 1-(3′-CYANO-5′-FLUORO-3-METHOXY-[1,1′-BIPHENYL]-4-YL)-N-(PYRIMIDIN-4-YL)ISOQUINOLINE-6-SULFONAMIDE]: more than 30000 nM and 287 nM. On the same counts, the results for `COc1cc(-c2cccc(C(F)(F)F)c2)ccc1-c1nccc2cc(S(=O)(=O)Nc3ccncn3)ccc12` [Example 351, 1-(3-METHOXY-3′-(TRIFLUOROMETHYL)-[1,1′-BIPHENYL]-4-YL)-N-(PYRIMIDIN-4-YL)ISOQUINOLINE-6-SULFONAMIDE] are 26600 nM and 76 nM. For the compound `COc1cc(-c2cccc(C(F)(F)F)c2)ccc1-c1ncnc2cc(S(=O)(=O)Nc3ccncn3)ccc12` [Example 528, 4-(3-METHOXY-3′-(TRIFLUOROMETHYL)-[1,1′-BIPHENYL]-4-YL)-N-(PYRIMIDIN-4-YL)QUINAZOLINE-7-SULFONAMIDE], the IC50 in data set [1] (setting [4]) is more than 30000 nM; in data set [2], 58 nM.

For the compound `COc1cc(C(F)(F)F)ccc1-c1ccnc2cc(S(=O)(=O)Nc3nccs3)c(F)cc12` [Example 319, 6-FLUORO-4-(2-METHOXY-4-(TRIFLUOROMETHYL)PHENYL)-N-(THIAZOL-2-YL)QUINOLINE-7-SULFONAMIDE 2,2,2-TRIFLUOROACETATE], the IC50 in data set [1] (setting [4]) came to 2790 nM; in data set [2] it was 407 nM.

As to `COc1cc(Cl)ccc1-c1cccc2cc(S(=O)(=O)Nc3ncns3)ccc12` [Example 30], the half-inhibitory concentration (IC50) in data set [1] (setting [5]) is 19900 nM.

Consider `Nc1cc(Cl)ccc1-c1cccc2cc(S(=O)(=O)Nc3ncns3)ccc12` [Example 31], for which the IC50 in data set [1] (setting [5]) was more than 30000 nM. On the same count and under the same terms, the value for `Cc1cc(Cl)ccc1-c1cccc2cc(S(=O)(=O)Nc3ncns3)ccc12` [Example 33] was 9580 nM; that for `O=S(=O)(Nc1ncns1)c1ccc2c(-c3ccc(C(F)(F)F)cc3F)cccc2c1` [Example 36] was 15100 nM. Take `COc1cc(C)ccc1-c1nccc2cc(S(=O)(=O)Nc3nccs3)ccc12` [Example 175]: in data set [1] (setting [4]), the IC50 is more than 30000 nM. `O=S(=O)(Nc1ncns1)c1ccc2c(-c3ccc(C(F)(F)F)cc3)cccc2c1` [Example 37]: in data set [1] (setting [5]), the IC50 is 14400 nM.

`COc1ccccc1-c1nccc2cc(S(=O)(=O)Nc3ccncn3)ccc12` [Example 140, 1-(2-METHOXYPHENYL)-N-(PYRIMIDIN-4-YL)ISOQUINOLINE-6-SULFONAMIDE]: the IC50 in data set [2] was 10700 nM; in data set [3], 90 nM.

Regarding `COc1cc(Cl)c(Cl)cc1-c1nccc2cc(S(=O)(=O)Nc3ccncn3)ccc12` [Example 161, 1-(4,5-DICHLORO-2-METHOXYPHENYL)-N-(PYRIMIDIN-4-YL)ISOQUINOLINE-6-SULFONAMIDE], the IC50 in data set [2] came to 393 nM; in data set [3] it was 20 nM. On the same counts, the results for `Cn1cncc1-c1cc(C(F)(F)F)ccc1-c1cccc2cc(S(=O)(=O)Nc3ncc(F)s3)ccc12` [Example 110] are 140 nM and 40 nM. On the same counts, the results for `O=S(=O)(Nc1ccncn1)c1ccc2c(-c3cc4cc(F)ccc4[nH]3)cccc2c1` [Example 114] are 11300 nM and 820 nM. As to `COc1ccc(-c2nccc3cc(S(=O)(=O)Nc4ccncn4)ccc23)c(OC)c1` [Example 172, 1-(2,4-DIMETHOXYPHENYL)-N-(PYRIMIDIN-4-YL)ISOQUINOLINE-6-SULFONAMIDE], the values for the IC50 in data set [2] and in data set [3] were 16600 nM and 270 nM, respectively.

Regarding `COc1cc(-c2cnn(C)c2)ccc1-c1nccc2cc(S(=O)(=O)Nc3nccs3)ccc12` [Example 203, 1-(2-METHOXY-4-(1-METHYL-1H-PYRAZOL-4-YL)PHENYL)-N-(THIAZOL-2-YL)ISOQUINOLINE-6-SULFONAMIDE], the figures for the IC50 in data set [2] and in data set [3] were 3290 nM and 310 nM, respectively. The matching figures for `COc1ccc(F)cc1-c1nccc2cc(S(=O)(=O)Nc3ccncn3)ccc12` [Example 148, 1-(5-FLUORO-2-METHOXYPHENYL)-N-(PYRIMIDIN-4-YL)ISOQUINOLINE-6-SULFONAMIDE]: 2410 nM and 80 nM. The matching figures for `COc1cc(C(F)(F)F)ccc1-c1nc(C#N)cc2cc(S(=O)(=O)Nc3nccs3)ccc12` [Example 220, 3-CYANO-1-(2-METHOXY-4-(TRIFLUOROMETHYL)PHENYL)-N-(THIAZOL-2-YL)ISOQUINOLINE-6-SULFONAMIDE]: 450 nM and 60 nM. The matching figures for `O=S(=O)(Nc1nccs1)c1ccc2c(N3CCC(c4ccccc4)C3)nccc2c1` (centres unmarked) [Example 243, 1-(3-PHENYLPYRROLIDIN-1-YL)-N-(THIAZOL-2-YL)ISOQUINOLINE-6-SULFONAMIDE]: 10700 nM and 780 nM. For `COc1ccccc1-c1cccc2cc(S(=O)(=O)Nc3ncns3)ccc12` [Example 94], the half-maximal inhibitory concentration (IC50) was 57.2 nM in data set [2] and 10 nM in data set [3]. On the same counts, the results for `COc1cc(Cl)ccc1-c1nccc2cc(S(=O)(=O)Nc3nccs3)ccc12` [Example 201, 1-(4-CHLORO-2-METHOXYPHENYL)-N-(THIAZOL-2-YL)ISOQUINOLINE-6-SULFONAMIDE] are 315 nM and 20 nM. The matching figures for `COC(=N)c1cc(C(F)(F)F)ccc1-c1nccc2cc(S(=O)(=O)Nc3nccs3)ccc12` [Example 226, METHYL 2-(6-(N-(THIAZOL-2-YL)SULFAMOYL)ISOQUINOLIN-1-YL)-5-(TRIFLUOROMETHYL)BENZIMIDATE]: 600 nM and 90 nM. As for `O=S(=O)(Nc1ncns1)c1ccc2c(-c3ccc(Cl)cc3F)cccc2c1` [Example 35], the IC50 in data set [1] (setting [5]) turned out to be 9990 nM.

For `Cn1c(-c2cccc3cc(S(=O)(=O)Nc4ccncn4)ccc23)cc2cc(F)ccc21` [Example 106], the IC50 was 3840 nM in data set [2] and 1600 nM in data set [3].

`O=S(=O)(Nc1ncc(F)s1)c1ccc2c(-c3ccc(C(F)(F)F)cc3C3=CCNCC3)cccc2c1` [Example 108]: the IC50 in data set [2] worked out at 210 nM; in data set [3] it was 170 nM.

On to `O=S(=O)(Nc1ncns1)c1ccc2c(-c3ccc(Cl)cc3)cccc2c1` [Example 34], for which the IC50 in data set [1] (setting [5]) was 5960 nM.

In the case of `COc1ccc(C#N)cc1-c1nccc2cc(S(=O)(=O)Nc3ccncn3)ccc12` [Example 150, 1-(5-CYANO-2-METHOXYPHENYL)-N-(PYRIMIDIN-4-YL)ISOQUINOLINE-6-SULFONAMIDE], the IC50 in data set [2] turned out to be 7190 nM; in data set [3], 120 nM.
